Measurements taken from patent publication US20250263370A1 (Tay Therapeutics Limited, priority 2022, published 2025).
“And” between values parts separate entries of the source, which are not always exact repeats. Equal values may be shown once. Marks after values point to notes of the source that are not given here.

How the values were obtained:
[1] = system: rat anti-collagen IgG1 antibodies; assay: Rat anti-collagen IgG1 antibodies in serum of CIA rats at day 21; format: in vivo, Lewis rat; details: for Average rat anti-collagen IgG1 levels, Mean: day 21, group mean; for Final Rat Anti-Collagen IgG1 Antibody Con. / Rat Anti-Collagen IgG1 Antibody Con.: day 21, per animal; for Rat Anti-Collagen IgG1 Antibody Con.: before multiplying by Fold 1000; for levels of rat anti-collagen IgG1 antibodies relative to CIA induced, no treatment: day 21
Procedure: Blood was additionally collected from groups 1-7 via cardiac puncture following euthanasia on Day 21. […] Serum was divided into two separate tubes and stored at −75±15° C. One tube was used to analyze IgG1, and the other tube was reserved for additional analyses.

[2] = system: collagen-induced arthritis; assay: Histopathologic analysis of H&E-stained hind limbs of CIA rats; format: in vivo, Lewis rat; details: hind limbs, CIA induced, 8 animals examined
Source text: Hind limbs were collected following euthanasia, with the left limb being used for H&E staining.
H&E-stained slides of designated tissues from animals were transferred to an independent pathologist for microscopic evaluation (SPFBio). Samples were assigned the histologic grades based on the severity of change from tissue where CIA was not induced. Histology grades assigned were as follows: grade 1 (minimal change), grade 2 (mild change), grade 3 (moderate change), grade 4 (marked change), and grade 5 (severe change).
Moderate inflammation was also associated with increased edema fluid, fibrin, and cellular debris. Marked mixed cell inflammation was characterized by dense, widespread accumulations of neutrophils and macrophages with lesser number of lymphocytes within one or more joint spaces, synovium and periarticular soft tissues. Marked inflammation was also associated with abundant edema fluid, fibrin, and cellular debris.
Marked granulation tissue (pannus) was associated with inflammation and was characterized by widespread fibrovascular connective tissue that expanded/replaced the periarticular soft tissues of one or more joints, extended into/expanded joint spaces, was contiguous with areas of erosion/ulcer in articular cartilage and/or increased eroded surface of bone, and variably extended along the diaphysis.
Instances of minimal increased eroded surface were not associated with fragments of bone contiguous and/or surrounded by granulation tissue. […] In some areas, increased eroded surfaces were contiguous with areas of erosion/ulcer in the articular cartilages. Instance of marked increased eroded surface were often associated with fragments of bone contiguous with and/or surrounded by granulation tissue.
This observation was typically most pronounced at joint margins (transition zone). The ulceration was often associated with inflammation and granulation tissue extending through the defect to the subchondral bone.
Marked increased periosteal bone (periosteal bone formation) was characterized by extensive areas of increased bone matrix and numerous prominent osteoblasts lining trabecular surfaces along the metaphysis and/or diaphysis of one or more bones. In some areas, increased periosteal bone was contiguous with increased eroded surface and/or erosion/ulcer at articular cartilage.

**Q.** Which results are given for `CNC(=O)c1[nH]c(C(=O)NC2CCC2)cc1O[C@@H](C)c1ccccc1` (stereo in doubt) [Example 101, N^5-cyclobutyl-N^2-methyl-3-(1-phenylethoxy)-1H-pyrrole-2,5-dicarboxamide]?
**A.** Average rat anti-collagen IgG1 levels, Mean ([1]; Group 5 (CIA), 3 mg/kg): 7247.32*; Final Rat Anti-Collagen IgG1 Antibody Con. ([1]; Group 5 (CIA), 3 mg/kg): 7202.91 units/ml and 5737.56 units/ml and 596.39 units/ml and 17040.09 units/ml and 6834.32 units/ml and 2359.32 units/ml and 1570.97 units/ml and 16636.97 units/ml; Average rat anti-collagen IgG1 levels, Mean ([1]; Group 6 (CIA), 10 mg/kg): 10839.90; Final Rat Anti-Collagen IgG1 Antibody Con. ([1]; Group 6 (CIA), 10 mg/kg): 44339.86 units/ml and 9577.48 units/ml and 15070.08 units/ml and 545.06 units/ml and 12072.29 units/ml and 3772.28 units/ml and 782.47 units/ml and 559.69 units/ml; Average rat anti-collagen IgG1 levels, Mean ([1]; Group 7 (CIA), 30 mg/kg): 1447.13**; Final Rat Anti-Collagen IgG1 Antibody Con. ([1]; Group 7 (CIA), 30 mg/kg): 219.33 units/ml and 81.22 units/ml and 1208.05 units/ml and 4311.36 units/ml and 1799.62 units/ml and 548.72 units/ml and 1961.63 units/ml; Rat Anti-Collagen IgG1 Antibody Con. ([1]; Group 5 (CIA), 3 mg/kg): 7.20 units/ml and 5.74 units/ml and 0.60 units/ml and 17.04 units/ml and 6.83 units/ml and 2.36 units/ml and 1.57 units/ml and 16.64 units/ml; Rat Anti-Collagen IgG1 Antibody Con. ([1]; Group 6 (CIA), 10 mg/kg): 44.34 units/ml and 9.58 units/ml and 15.07 units/ml and 0.55 units/ml and 12.07 units/ml and 3.77 units/ml and 0.78 units/ml and 0.56 units/ml; Rat Anti-Collagen IgG1 Antibody Con. ([1]; Group 7 (CIA), 30 mg/kg): 0.22 units/ml and 0.08 units/ml and 1.21 units/ml and 4.31 units/ml and 1.80 units/ml and 0.55 units/ml and 1.96 units/ml; levels of rat anti-collagen IgG1 antibodies relative to CIA induced, no treatment ([1]; 1 mg/kg, 10 mg/kg as printed, p<0.05): significantly decreased levels; levels of rat anti-collagen IgG1 antibodies relative to CIA induced, no treatment ([1]; 30 mg/kg, p<0.01): significantly decreased levels; Number of animals: Erosion/Ulcer, cartilaginous, Marked ([2]; 3 mg/kg): 0; Number of animals: Erosion/Ulcer, cartilaginous, Mild ([2]; 3 mg/kg): 2; Number of animals: Erosion/Ulcer, cartilaginous, Minimal ([2]; 3 mg/kg): 0; Number of animals: Erosion/Ulcer, cartilaginous, Moderate ([2]; 3 mg/kg): 6; Number of animals: Granulation tissue, Marked ([2]; 3 mg/kg): 0; Number of animals: Granulation tissue, Mild ([2]; 3 mg/kg): 1; Number of animals: Granulation tissue, Minimal ([2]; 3 mg/kg): 0; Number of animals: Granulation tissue, Moderate ([2]; 3 mg/kg): 7; Number of animals: Increased bone, periosteum, Marked ([2]; 3 mg/kg): 0; Number of animals: Increased bone, periosteum, Mild ([2]; 3 mg/kg): 7; Number of animals: Increased bone, periosteum, Minimal ([2]; 3 mg/kg): 0; Number of animals: Increased bone, periosteum, Moderate ([2]; 3 mg/kg): 1; Number of animals: Increased eroded surface, bone, Marked ([2]; 3 mg/kg): 0; Number of animals: Increased eroded surface, bone, Mild ([2]; 3 mg/kg): 5; Number of animals: Increased eroded surface, bone, Minimal ([2]; 3 mg/kg): 0; Number of animals: Increased eroded surface, bone, Moderate ([2]; 3 mg/kg): 3; Number of animals: Mixed cell inflammation, Marked ([2]; 3 mg/kg): 1; Number of animals: Mixed cell inflammation, Mild ([2]; 3 mg/kg): 0; Number of animals: Mixed cell inflammation, Minimal ([2]; 3 mg/kg): 0; Number of animals: Mixed cell inflammation, Moderate ([2]; 3 mg/kg): 7; Number of animals: No Visible Lesions ([2]; 3 mg/kg): 0; Number of animals: Erosion/Ulcer, cartilaginous, Marked ([2]; 10 mg/kg): 0; Number of animals: Erosion/Ulcer, cartilaginous, Mild ([2]; 10 mg/kg): 3; Number of animals: Erosion/Ulcer, cartilaginous, Minimal ([2]; 10 mg/kg): 1; Number of animals: Erosion/Ulcer, cartilaginous, Moderate ([2]; 10 mg/kg): 3; Number of animals: Granulation tissue, Marked ([2]; 10 mg/kg): 0; Number of animals: Granulation tissue, Mild ([2]; 10 mg/kg): 3; Number of animals: Granulation tissue, Minimal ([2]; 10 mg/kg): 0; Number of animals: Granulation tissue, Moderate ([2]; 10 mg/kg): 3; Number of animals: Increased bone, periosteum, Marked ([2]; 10 mg/kg): 0; Number of animals: Increased bone, periosteum, Mild ([2]; 10 mg/kg): 4; Number of animals: Increased bone, periosteum, Minimal ([2]; 10 mg/kg): 1; Number of animals: Increased bone, periosteum, Moderate ([2]; 10 mg/kg): 2; Number of animals: Increased eroded surface, bone, Marked ([2]; 10 mg/kg): 0; Number of animals: Increased eroded surface, bone, Mild ([2]; 10 mg/kg): 2; Number of animals: Increased eroded surface, bone, Minimal ([2]; 10 mg/kg): 2; Number of animals: Increased eroded surface, bone, Moderate ([2]; 10 mg/kg): 3; Number of animals: Mixed cell inflammation, Marked ([2]; 10 mg/kg): 2; Number of animals: Mixed cell inflammation, Mild ([2]; 10 mg/kg): 2; Number of animals: Mixed cell inflammation, Minimal ([2]; 10 mg/kg): 1; Number of animals: Mixed cell inflammation, Moderate ([2]; 10 mg/kg): 3; Number of animals: No Visible Lesions ([2]; 10 mg/kg): 0; Number of animals: Erosion/Ulcer, cartilaginous, Marked ([2]; 30 mg/kg): 0; Number of animals: Erosion/Ulcer, cartilaginous, Mild ([2]; 30 mg/kg): 4; Number of animals: Erosion/Ulcer, cartilaginous, Minimal ([2]; 30 mg/kg): 1
